# Source: article PMC9199881 (Clinical and Translational Science, 2022)
# Columns and labels:
# healthy subjects [1] = assay: Safety assessment; format: in vivo, human; settings: Part A
# [2] = system: human ether-a-go-go-related gene (hERG) current; settings: 10 μM; hERG-transfected HEK293 cells; ref unpublished preclinical safety studies; cited from earlier work
# [3] = cited from earlier work
# healthy subjects [4] = assay: Concentration-QTc; format: in vivo, human
# [5] = system: spontaneous canine pemphigus foliaceus; settings: cited from earlier work
# [6] = Plasma pharmacokinetics, Part A; format: in vivo, human; settings: for AUC(0-t) / AUC(0-inf) / Cmax / Tmax / half-life: human, plasma, oral; for AUC(0-t): AUC0–last; for AUC(0-inf): AUC0–∞
# patients with PV and ITP = settings: rilzabrutinib 400 mg b.i.d.; cited from earlier work
# other CYP enzymes = settings: enzymatic studies; cited from earlier work
# healthy subjects [7] = assay: ECG by timepoint analysis and categorical outliers, Part B; format: in vivo, human
# [8] = rilzabrutinib 100 mg + ritonavir 100 mg
# [9] = Part B, linear model with an intercept
# [10] = 1200 mg, Mean (SD), rilzabrutinib 1200 mg single dose
# [11] = 1200 mg, Median (range), rilzabrutinib 1200 mg single dose
# [12] = Mean (SD), rilzabrutinib 100 mg + ritonavir 100 mg b.i.d., rilzabrutinib in plasma
# [13] = Median (range), rilzabrutinib 100 mg + ritonavir 100 mg b.i.d., rilzabrutinib in plasma
# [14] = rilzabrutinib 100 mg + ritonavir 100 mg vs 100 mg alone
smiles,measurement,setting,value
"CC(C)(/C=C(\C#N)C(=O)N1CCC[C@@H](n2nc(-c3ccc(Oc4ccccc4)cc3F)c3c(N)ncnc32)C1)N1CCN(C2COC2)CC1 [Rilzabrutinib, rilzabrutinib]","Treatment-related TEAE: Gastrointestinal disorders, n (%)",healthy subjects [1]; rilzabrutinib 100 mg,0 n (%)
same,"Treatment-related TEAE: Nausea, n (%)",healthy subjects [1]; rilzabrutinib 100 mg,0 n (%)
same,"Treatment-related TEAE: Nervous system disorders, n (%)",healthy subjects [1]; rilzabrutinib 100 mg,1 (8.3) n (%)
same,"Treatment-related TEAE: Orthostatic hypotension, n (%)",healthy subjects [1]; rilzabrutinib 100 mg,0 n (%)
same,"Treatment-related TEAE: Subjects with ≥1 TEAE, n (%)",healthy subjects [1]; rilzabrutinib 100 mg,0 n (%)
same,"Treatment-related TEAE: Vascular disorders, n (%)",healthy subjects [1]; rilzabrutinib 100 mg,0 n (%)
same,"Treatment-related TEAE: Vomiting, n (%)",healthy subjects [1]; rilzabrutinib 100 mg,0 n (%)
same,"Treatment-related TEAE: Diarrhea, n (%)",healthy subjects [1]; [8],0 n (%)
same,"Treatment-related TEAE: Dizziness, n (%)",healthy subjects [1]; [8],1 (9.1) n (%)
same,"Treatment-related TEAE: Gastrointestinal disorders, n (%)",healthy subjects [1]; [8],0 n (%)
same,"Treatment-related TEAE: Nausea, n (%)",healthy subjects [1]; [8],0 n (%)
same,"Treatment-related TEAE: Orthostatic hypotension, n (%)",healthy subjects [1]; [8],0 n (%)
same,"Treatment-related TEAE: Subjects with ≥1 TEAE, n (%)",healthy subjects [1]; [8],1 (9.1) n (%)
same,"Treatment-related TEAE: Vascular disorders, n (%)",healthy subjects [1]; [8],0 n (%)
same,"Treatment-related TEAE: Vomiting, n (%)",healthy subjects [1]; [8],0 n (%)
same,"Treatment-related TEAE: Diarrhea, n (%)",healthy subjects [1]; rilzabrutinib 1200 mg,2 (50.0) n (%)
same,"Treatment-related TEAE: Dizziness, n (%)",healthy subjects [1]; rilzabrutinib 1200 mg,1 (25.0) n (%)
same,"Treatment-related TEAE: Gastrointestinal disorders, n (%)",healthy subjects [1]; rilzabrutinib 1200 mg,3 (75.0) n (%)
same,"Treatment-related TEAE: Nausea, n (%)",healthy subjects [1]; rilzabrutinib 1200 mg,2 (50.0) n (%)
same,"Treatment-related TEAE: Nervous system disorders, n (%)",healthy subjects [1]; rilzabrutinib 1200 mg,1 (25.0) n (%)
same,"Treatment-related TEAE: Orthostatic hypotension, n (%)",healthy subjects [1]; rilzabrutinib 1200 mg,1 (25.0) n (%)
same,"Treatment-related TEAE: Subjects with ≥1 TEAE, n (%)",healthy subjects [1]; rilzabrutinib 1200 mg,3 (75.0) n (%)
same,"Treatment-related TEAE: Vascular disorders, n (%)",healthy subjects [1]; rilzabrutinib 1200 mg,1 (25.0) n (%)
same,"Treatment-related TEAE: Vomiting, n (%)",healthy subjects [1]; rilzabrutinib 1200 mg,1 (25.0) n (%)
same,tolerability,healthy subjects [1]; single dose of 100 mg,well tolerated
same,signal on hERG current,[2],no signal
same,accumulation after chronic multiple dosing,[3]; 400 mg b.i.d.,minimal accumulation
same,delay of absorption by a moderate fat meal,[3]; healthy volunteers,~ 1 h
same,median time to maximum plasma concentration [Tmax],"[3]; single dose 50–1200 mg, healthy volunteers",0.5 to 2.5 h
same,mean half-life (t 1/2),"[3]; single dose, healthy volunteers",1.4 to 3.9 h
same,concentration–QTc relationship (slope),healthy subjects [4]; Part B,-0.01 ms/ng/mL
same,predicted ΔΔQTcF at the observed geometric mean Cmax,"healthy subjects [4]; Part B, 400 mg alone",-3.4 ms
same,estimated population slope of the C-QTc relationship,healthy subjects [4]; [9],0.01 ms per ng/mL
same,intercept of the C-QTc relationship,healthy subjects [4]; [9],-2.0 ms
same,predicted ΔΔQTcF at the observed geometric mean Cmax,"healthy subjects [4]; Part B, rilzabrutinib 400 mg with ritonavir",-9.9 ms
same,predicted ΔΔQTcF interval at Cmax,healthy subjects [4]; both therapeutic and supratherapeutic dose groups,< 0 ms
same,predicted upper bound 90% CI of QTc effect,healthy subjects [4]; therapeutic and supratherapeutic concentrations,< 10 ms
same,anti-inflammatory effects,[5],rapid and significant anti‐inflammatory effects
same,AUC(0-t),[6]; [10],2470 ng·h/mL
same,AUC(0-t),[6]; [11],551 ng·h/mL
same,AUC(0-inf),[6]; [10],2470 ng·h/mL
same,AUC(0-inf),[6]; [11],553 ng·h/mL
same,Cmax,[6]; [10],569 ng/mL
same,Cmax,[6]; [11],136 ng/mL
same,Tmax,[6]; [10],2.9 h
same,Tmax,[6]; [11],~3 h
same,half-life,"[6]; 1200 mg, t 1/2, Mean (SD), rilzabrutinib 1200 mg single dose",3.1 h
same,half-life,"[6]; 1200 mg, t 1/2, Median (range), rilzabrutinib 1200 mg single dose",3.2 h
same,AUC(0-t),[6]; [12],1080 ng·h/mL
same,AUC(0-t),[6]; [13],771 ng·h/mL
same,AUC(0-inf),[6]; [12],1100 ng·h/mL
same,AUC(0-inf),[6]; [13],778 ng·h/mL
same,Cmax,[6]; [12],223 ng/mL
same,Cmax,[6]; [13],157 ng/mL
same,Tmax,[6]; [12],2.3 h
same,Tmax,[6]; [13],2.5 h
same,half-life,"[6]; t 1/2, Mean (SD), rilzabrutinib 100 mg + ritonavir 100 mg b.i.d., rilzabrutinib in plasma",4 h
same,half-life,"[6]; t 1/2, Median (range), rilzabrutinib 100 mg + ritonavir 100 mg b.i.d., rilzabrutinib in plasma",4 h
same,increase in rilzabrutinib AUC0–∞ with ritonavir over rilzabrutinib alone,[6]; [14],17 fold
same,increase in rilzabrutinib Cmax with ritonavir over rilzabrutinib alone,[6]; [14],7 fold
same,"Tmax, Median (range)",[6]; rilzabrutinib 100 mg single dose,1.0 (0.5–2.0) h
same,"Tmax, Median (range)",[6]; rilzabrutinib 1200 mg single dose,3.0 (1.5–4.0) h
same,prolonged QTcF interval among safety concerns,patients with PV and ITP,did not report prolonged QTcF interval
same,interaction with other CYP enzymes,other CYP enzymes,no significant interaction
same,effect on HR,healthy subjects [7]; Part B,no effect on HR
same,effect on cardiac conduction (PR and QRS intervals),"healthy subjects [7]; Part B, at the studied doses",no clinically relevant effect
same,treatment-emergent T-wave or U-wave morphology changes,"healthy subjects [7]; Part B, following 400 mg rilzabrutinib",one subject with a flat T wave at two timepoints
same,"effects on ECG parameters, including the QTc interval",healthy subjects [7]; therapeutic and supratherapeutic (with ritonavir) exposures,no clinically relevant effects
